What was measured:
PC3 = assay: MTT assay, antiproliferative activity against PC3 cells; type: cell-based; settings: Homo sapiens, PC-3, 72 h, mean of at least two determinations
Excerpt: (§1) All synthesized target compounds were firstly tested for their antiproliferative activity against five human cancer cell lines, PC3, A549, HCT116, HL60, and KB, using MTT assay.
(§2) Human prostate cancer PC3 cells, lung adenocarcinoma epithelial A549 cells, colon cancer HCT116 cells, promyelocytic leukemia HL60 cells and nasopharyngeal carcinoma KB cells were obtained from the cell bank of the Institute of Biochemistry and Cell Biology, Chinese Academy of Sciences (Shanghai, China). The inhibitory activity of target compounds against tested cancer cell lines was measured using the MTT assay. PC3, A549, HCT116, HL60, and KB cancer cell lines were cultured in RPMI-1640 medium (Invitrogen, Carlsbad, CA, USA) with heat-inactivated 10% fetal bovine serum, penicillin (100 units/mL) and streptomycin (100 µg/mL) and incubated in an atmosphere with 20% oxygen and 5% carbon dioxide at 37°C. All tested compounds were dissolved in DMSO at concentrations of 10.0 mg/mL and diluted to appropriate concentrations. Cells were plated in 96-well plates for 24 h and subsequently treated with different concentrations of all tested compounds for 72 h. Viable cells were determined using 3-(4,5-dimethylthiazol-2-yl)-2,5-diphenyltetrazolium bromide assay kit (MTT, Sigma) according to operation instructions provided by the manufacturer. The concentration of drug causing 50% inhibition in absorbance compared with control cells (IC50) was calculated using the software of dose-effect analysis with microcomputers.

A549 = assay: MTT assay, antiproliferative activity against A549 cells; type: cell-based; settings: Homo sapiens, 72 h, mean of at least two determinations
Excerpt: as §1, §2

HCT116 = assay: MTT assay, antiproliferative activity against HCT116 cells; type: cell-based; settings: Homo sapiens, HCT-116, 72 h, mean of at least two determinations
Excerpt: as §1, §2

HL60 = assay: MTT assay, antiproliferative activity against HL60 cells; type: cell-based; settings: Homo sapiens, HL-60, 72 h, mean of at least two determinations
Excerpt: as §1, §2

KB = assay: MTT assay, antiproliferative activity against KB cells; type: cell-based; settings: Homo sapiens, 72 h, mean of at least two determinations
Excerpt: as §1, §2

recombinant human PI3Kα = target: T1, recombinant human PI3Kα (Homo sapiens, UniProt P42336); assay: Competitive fluorescence polarization (FP) assay, inhibition of PI3Kα; type: biochemical; settings: for IC50: FP assay, 50 µM ATP, mean of at least two determinations; for Binding efficiency index (BEI): BEI = pIC50 (M)/MW (kDa), PI3Kα
T1 construct: purchased Echelon Biosciences (Salt Lake City, UT, USA) E-2000
Experimental: Selected compounds were then tested for their enzymatic inhibitory activity against PI3Kα using a competitive fluorescence polarization (FP) assay to determine the molecular target of synthesized compounds [21].
The PI3Kα inhibitory test was determined using a competitive fluorescence polarization kinase activity assay. PI3K fluorescence polarization assay kit (catalog No. K-1100) and recombinant human PI3Kα (catalog No. E-2000) were purchased from Echelon Biosciences (Salt Lake City, UT, USA). PI3K reactions were performed in 5 mM HEPES, Ph 7, 2.5 mM MgCl2, 10 mM DTT and 50 µM ATP, using diC8-phosphatidylinositol-4, 5-bisphosphate (PIP2) as the substrate, and the final reaction volumes were 10 µL. For evaluation of the PI3Kα inhibitory activity of target compounds, 50 ng enzyme and 10 µM substate were used per 10 µL reaction volume with the concentrations of inhibitors ranging from 3.2 nM to 10 µM. After incubating for 3 h at room temperature, reactions were quenched by adding chelators. A mixture of phosphoinositide binding protein was added and mixed, followed by the addition of a fluorophore-labeled phosphoinositide tracer. Samples were then mixed in 384-well black Corning nonbinding plates (Corning, NY, USA) and incubated in a dark environment for 1 h to equilibrate. Finally, polarization values were measure using red fluorophores with appropriate filters to determine the extent of enzyme activity in the reaction.

T1 sequence (P42336 whole entry): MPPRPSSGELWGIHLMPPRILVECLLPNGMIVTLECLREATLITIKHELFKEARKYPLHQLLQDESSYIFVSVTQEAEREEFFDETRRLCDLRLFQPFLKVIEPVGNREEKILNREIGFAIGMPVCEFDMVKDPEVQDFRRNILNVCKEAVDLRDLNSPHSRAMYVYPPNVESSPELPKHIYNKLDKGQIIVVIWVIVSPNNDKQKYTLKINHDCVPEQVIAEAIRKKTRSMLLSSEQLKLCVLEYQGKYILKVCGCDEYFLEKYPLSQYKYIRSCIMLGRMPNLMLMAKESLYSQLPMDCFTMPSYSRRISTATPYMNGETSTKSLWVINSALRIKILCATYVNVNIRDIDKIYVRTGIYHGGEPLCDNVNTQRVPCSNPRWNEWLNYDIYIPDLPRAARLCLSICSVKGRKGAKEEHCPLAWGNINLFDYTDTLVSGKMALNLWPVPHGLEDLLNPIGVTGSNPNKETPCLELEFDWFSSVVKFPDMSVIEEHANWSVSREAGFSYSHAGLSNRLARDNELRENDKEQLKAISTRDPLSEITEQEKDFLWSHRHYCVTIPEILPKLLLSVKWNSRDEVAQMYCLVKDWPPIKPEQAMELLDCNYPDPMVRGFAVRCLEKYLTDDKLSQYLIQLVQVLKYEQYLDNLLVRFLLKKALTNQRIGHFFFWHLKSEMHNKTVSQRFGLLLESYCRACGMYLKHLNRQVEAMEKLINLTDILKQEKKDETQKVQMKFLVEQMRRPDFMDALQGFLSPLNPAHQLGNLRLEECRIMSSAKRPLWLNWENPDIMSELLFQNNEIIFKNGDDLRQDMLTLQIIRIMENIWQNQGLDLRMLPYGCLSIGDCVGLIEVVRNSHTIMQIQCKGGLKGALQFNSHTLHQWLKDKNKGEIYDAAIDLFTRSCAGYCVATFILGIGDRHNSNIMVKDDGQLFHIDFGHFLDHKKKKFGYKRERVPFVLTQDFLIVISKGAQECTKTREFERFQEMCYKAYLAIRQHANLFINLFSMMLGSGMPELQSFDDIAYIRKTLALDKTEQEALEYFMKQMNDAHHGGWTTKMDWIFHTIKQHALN
T1 sequence (P27986 whole entry partner): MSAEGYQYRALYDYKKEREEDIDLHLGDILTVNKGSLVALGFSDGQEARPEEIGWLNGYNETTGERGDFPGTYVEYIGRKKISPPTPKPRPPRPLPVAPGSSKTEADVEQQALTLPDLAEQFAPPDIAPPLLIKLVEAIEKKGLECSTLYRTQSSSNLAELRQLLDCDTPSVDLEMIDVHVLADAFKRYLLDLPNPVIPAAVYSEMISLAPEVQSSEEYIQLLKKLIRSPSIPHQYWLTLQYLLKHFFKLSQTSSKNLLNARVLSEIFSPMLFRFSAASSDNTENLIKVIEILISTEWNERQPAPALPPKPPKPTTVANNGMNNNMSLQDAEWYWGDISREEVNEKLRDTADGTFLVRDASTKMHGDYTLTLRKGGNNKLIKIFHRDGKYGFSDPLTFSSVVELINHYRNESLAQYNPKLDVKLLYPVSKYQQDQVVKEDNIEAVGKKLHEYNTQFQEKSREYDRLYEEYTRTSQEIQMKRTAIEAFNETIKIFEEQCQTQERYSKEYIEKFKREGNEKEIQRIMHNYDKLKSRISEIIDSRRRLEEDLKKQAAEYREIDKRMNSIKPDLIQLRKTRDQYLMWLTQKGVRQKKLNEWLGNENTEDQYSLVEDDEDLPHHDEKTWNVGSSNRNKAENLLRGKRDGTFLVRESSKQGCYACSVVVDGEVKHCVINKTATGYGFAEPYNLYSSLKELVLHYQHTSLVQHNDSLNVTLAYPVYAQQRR

| SMILES | IC50 (PC3) [nM] | IC50 (A549) [nM] | IC50 (HCT116) [nM] | IC50 (HL60) [nM] | IC50 (KB) [nM] | IC50 (recombinant human PI3Kα) [nM] | melting point [°C] | Binding efficiency index (BEI) (recombinant human PI3Kα) |
| --- | --- | --- | --- | --- | --- | --- | --- | --- |
| CN1CCN(c2nc3ccccc3nc2S(=O)(=O)c2ccccc2)CC1 [Compound 14, 2-(4-Methylpiperazin-1-yl)-3-(phenylsulfonyl)quinoxaline] | 2940 | 14000 | 2780 | 770 | 4540 | > 10000 | 154 to 157 |  |
| Cc1ccc(S(=O)(=O)c2nc3ccccc3nc2N2CCNC(C)C2)cc1 (centres unmarked) [Compound 25, 2-(3-Methylpiperazin-1-yl)-3-(4-methylphenylsulfonyl)quinoxaline] | 2030 | 1600 | 1170 | 90 | 9180 | 650 | 136 to 138 | 16.2 |
| Cc1ccc(S(=O)(=O)N2CCN(c3nc4ccccc4nc3S(=O)(=O)c3ccccc3)CC2)cc1 [Compound 44, 2-(4-(4-Methylphenylsulfonyl)piperazin-1-yl)-3-(phenylsulfonyl)quinoxaline] | 2190 | 24300 | 7490 | 6400 | 3080 | > 10000 | 161 to 163 |  |
| O=C(c1ccc(Cl)cc1)N1CCN(c2nc3ccccc3nc2S(=O)(=O)c2ccccc2)CC1 [Compound 34, 2-(4-(4-Chlorobenzoyl)piperazin-1-yl)-3-(phenylsulfonyl)quinoxaline] | 2740 | 3860 | 25400 | 5840 | 930 | 2750 | 217 to 219 | 11.3 |
| O=C(c1ccccc1)N1CCN(c2nc3ccccc3nc2S(=O)(=O)c2ccccc2)CC1 [Compound 29, 2-(4-Benzoylpiperazin-1-yl)-3-(phenylsulfonyl)quinoxaline] | 4990 | 5200 | 42400 | 7200 | 1220 | > 10000 | 224 to 226 |  |
| Cc1ccc(S(=O)(=O)c2nc3ccccc3nc2N2CCN(C)CC2)cc1 [Compound 15, 2-(4-Methylpiperazin-1-yl)-3-(4-methylphenylsulfonyl)quinoxaline] | 840 | 2400 | 1680 | 690 | 470 | > 10000 | 127 to 130 |  |

Reference: article PMC3419191, “Identification of Novel Piperazinylquinoxaline Derivatives as Potent Phosphoinositide 3-Kinase (PI3K) Inhibitors” (PLoS ONE, 2012)
